Among the data in PubChem BioAssay (NCI) are GI50 and TGI values, retold here.

Holding throughout (assay): NCI tumour cell line growth inhibition, 48 h
Assay [1] relates to A498 renal.
The subject of assay [2] is HT29 colon.
The subject of assay [3] is SW-620 colon.
Assay [4] deals with SF-539 CNS.
For assay [5], the system named is OVCAR-8 ovarian.
In assay [6] the test system is NCI-H23 lung.
Assay [7] deals with UO-31 renal.
For assay [8], the system named is NCI-H522 lung.
Assay [9] relates to HCC-2998 colon.
Assay [10] relates to PC-3 prostate.

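A five-concentration, 48-hour dose response in 96-well plates underlies each endpoint, interpolated linearly between surrounding concentrations. The concentration for 50% growth inhibition is given as GI50. TGI: concentration producing complete growth inhibition.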

As for `CN(C)CCNc1c2c(c(NCCN(C)C)c3c(CO)c[nH]c13)C(=O)c1ccccc1C2=O`, the GI50 in assay [1] was 18.1 µM; in [2], 1.4 µM; in assay [3] it was 1.87 µM; in [4], 1.96 µM; in assay [5], 8.53 µM; in assay [6], 2.31 µM. Also, the GI50 in [7] was 3.31 µM; in assay [8] it was 4.6 µM; in assay [9], 1.43 µM; in assay [10] it was 2.6 µM. In addition, the TGI in assay [1] is 34.7 µM; in assay [2], greater than 23.2 µM; in assay [3] it was 7.57 µM; in assay [4], 4.72 µM; in [5] it was greater than 39.4 µM; in assay [6], greater than 21.9 µM. The TGI in assay [7] was determined as 23.2 µM; in assay [8] it was 24.1 µM; in assay [9], 5.46 µM; in assay [10] it was 26.8 µM.
With `C=C(C)[C@@H]1CC[C@]2(C)[C@H](CC=C3[C@@H]4[C@H](C)[C@@H](C)CC[C@]4(CO)CC[C@]32C)[C@@]1(C)CCCN`, the GI50 in assay [1] is 3.83 µM; in assay [2] it was 0.99 µM; in assay [3] it was 1.01 µM; in [4] it was 0.945 µM; in assay [5], 1.16 µM; in [6], 1.34 µM. Further, the GI50 was 0.823 µM in [7], 1.04 µM in [8], 0.873 µM in [9] and 1.65 µM in assay [10]. The TGI in [1] came to 11.2 µM; in assay [2], 2.04 µM; in assay [3] it was 2.11 µM; in assay [4], 1.73 µM; in [5] it was 2.8 µM; in assay [6], 4 µM. The TGI turned out to be 2.24 µM in assay [7], 2.17 µM in [8], 1.62 µM in assay [9] and 7.48 µM in assay [10].
As to `CN1N=Nc2c(C(F)(F)F)nn(-c3ccccc3)c2N(C)C1=O`, the GI50 in assay [1], in [2], in assay [3], in [4], in assay [6] and in [7] was greater than 100 µM each time. Also, the GI50 in [8], in [9] and in assay [10] was greater than 100 µM throughout. Further, the TGI in [1], in assay [2], in [3], in assay [4], in assay [5] and in assay [6] was greater than 100 µM throughout. Moreover, the TGI in assay [7], in assay [8], in assay [9] and in [10] was greater than 100 µM in each case.
As to `N#C/C(=C\c1cccnc1)c1nc2ccccc2o1`, the GI50 was 66.4 µM in assay [1]; greater than 100 µM in assay [2]; greater than 100 µM in assay [3]; greater than 100 µM in [4]; greater than 100 µM in assay [5]; greater than 100 µM in [6]. Moreover, the GI50 is 43.1 µM in assay [7], greater than 100 µM in assay [8], greater than 100 µM in [9] and greater than 100 µM in assay [10]. For the same compound, the TGI in [1], in [2], in assay [3], in assay [4], in assay [5] and in assay [6] was greater than 100 µM throughout. Also, the TGI in assay [7], in [8], in assay [9] and in assay [10] was greater than 100 µM in each case.
With `COc1cc(N=Nc2cccc(S(N)(=O)=O)c2)c2ccccc2c1N`, the TGI was 34.7 µM in [1]; 31 µM in [2]; greater than 95.3 µM in assay [3]; 9.19 µM in [4]; 56 µM in assay [5]; 6.72 µM in assay [6]. Further, the TGI in assay [7] worked out at 30.6 µM; in [8], 30.6 µM; in assay [9], 20.7 µM; in assay [10] it was 23.9 µM.
With `O=C(Nc1ccc(-c2ccnc(Nc3ccc(N4CCOCC4)cc3)n2)cc1)C1CCCN1` (centres undefined), the GI50 was 6.4 µM in [1]; 3.89 µM in [2]; 6.14 µM in [3]; 2.33 µM in [4]; 5.09 µM in assay [5]; 12.1 µM in assay [6]. Also, the GI50 was 4.06 µM in [7], 6.23 µM in assay [8], 11.3 µM in assay [9] and 1.79 µM in [10]. Further, the TGI in [1] was determined as 17.9 µM; in assay [2] it was 23.3 µM; in [3] it was 25.1 µM; in [4] it was 14.2 µM; in assay [5], 28.3 µM; in [6], 32.4 µM. In addition, the TGI in assay [7] amounted to 24.2 µM; in assay [8], 21.1 µM; in assay [9] it was 25 µM; in assay [10], 31.9 µM.
In the case of `N#CC1CCc2c(c(-c3cn[nH]c3C(F)(F)F)nc3c(F)cc4[nH]ncc4c23)C1` (centres undefined), the GI50 was 2.09 µM in assay [1]; 9.6 µM in assay [2]; 3.47 µM in assay [3]; 3.43 µM in assay [4]; 13.7 µM in assay [5]; 5.36 µM in [6]. Moreover, the GI50 in [7] is 9.64 µM; in assay [8] it was 2.31 µM; in assay [9], 11 µM; in assay [10], 9.19 µM. Moreover, the TGI was 6.75 µM in [1]; greater than 100 µM in assay [2]; 38 µM in assay [3]; 15.4 µM in [4]; greater than 100 µM in [5]; 28.4 µM in [6]. Besides, the TGI was 36.6 µM in [7], 8.61 µM in [8], 28.1 µM in assay [9] and greater than 100 µM in assay [10].
With `N#Cc1ccc2c(c1)C(=O)c1c-2n(CCCN=[N+]=[N-])c(=O)c2cc([N+](=O)[O-])ccc12`, the GI50 was greater than 50 µM in [1]; 32.1 µM in assay [2]; 3.5 µM in assay [3]; greater than 50 µM in assay [4]; greater than 50 µM in assay [5]; 49.5 µM in [6]. The GI50 in assay [7] is 13.1 µM; in assay [8] it was 37.4 µM; in [9], greater than 50 µM; in assay [10], greater than 50 µM. Also, the TGI in [1], in assay [2], in assay [3], in assay [4], in assay [5] and in assay [6] was greater than 50 µM each time. Besides, the TGI in assay [7], in assay [8], in [9] and in assay [10] was greater than 50 µM in each case.
